Test results: EP1382597A2, “Steroid receptor modulator compounds and methods” (LIGAND PHARMACEUTICALS, INC., priority 1994, dated 1996)
Read-outs that look alike come from different tables or passages of the source.

How the values were obtained:
[1] = molecular target: T1, ER (Homo sapiens, UniProt P03372); test: Co-transfection assay, ER agonist activity; assay type: cell-based; conditions: for Emax: CV-1, read-out: ER Agonist CV-1 Cells Efficacy (%)
T1 construct: expressed in transfected cells; host or cells: CV-1 cells, transient transfection, with MTV-ERE5-LUC reporter
T1 sequence (P03372 whole entry): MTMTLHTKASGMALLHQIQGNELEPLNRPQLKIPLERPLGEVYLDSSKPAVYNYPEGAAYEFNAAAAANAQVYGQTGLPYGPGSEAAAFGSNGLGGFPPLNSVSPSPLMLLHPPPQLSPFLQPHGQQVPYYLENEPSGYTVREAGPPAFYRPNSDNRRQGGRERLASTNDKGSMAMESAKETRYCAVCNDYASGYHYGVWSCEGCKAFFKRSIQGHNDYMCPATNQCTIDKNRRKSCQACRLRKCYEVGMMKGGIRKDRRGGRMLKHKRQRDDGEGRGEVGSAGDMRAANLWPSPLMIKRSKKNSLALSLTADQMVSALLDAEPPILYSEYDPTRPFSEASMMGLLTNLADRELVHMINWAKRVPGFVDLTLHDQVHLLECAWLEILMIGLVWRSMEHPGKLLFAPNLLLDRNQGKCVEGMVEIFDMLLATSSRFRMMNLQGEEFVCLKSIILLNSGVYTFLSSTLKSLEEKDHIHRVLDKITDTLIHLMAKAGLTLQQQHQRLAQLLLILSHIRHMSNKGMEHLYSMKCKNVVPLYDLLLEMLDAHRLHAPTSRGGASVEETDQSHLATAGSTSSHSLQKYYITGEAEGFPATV

[2] = molecular target: T1, ER; test: Co-transfection assay, ER antagonist activity; assay type: cell-based; conditions: for ER Antagonist CV-1 Cells Efficacy (%): percent maximal inhibition, estradiol at its EC50
[3] = molecular target: T2, human PR-B (Homo sapiens, UniProt P06401); test: Co-transfection assay, PR agonist activity; assay type: cell-based; conditions: for Emax: CV-1, read-out: PR Agonist CV-1 Cells Efficacy (%);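 on all read-outs here: CV-1 cells (African green monkey kidney) co-transfected with receptor plasmid and hormone-responsive firefly luciferase reporter, agonism read as compound-dependent rise in luciferase signal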
T2 construct: expressed in transfected cells; host or cells: CV-1 cells (African green monkey kidney fibroblasts), transient transfection
T2 sequence (P06401 1-933): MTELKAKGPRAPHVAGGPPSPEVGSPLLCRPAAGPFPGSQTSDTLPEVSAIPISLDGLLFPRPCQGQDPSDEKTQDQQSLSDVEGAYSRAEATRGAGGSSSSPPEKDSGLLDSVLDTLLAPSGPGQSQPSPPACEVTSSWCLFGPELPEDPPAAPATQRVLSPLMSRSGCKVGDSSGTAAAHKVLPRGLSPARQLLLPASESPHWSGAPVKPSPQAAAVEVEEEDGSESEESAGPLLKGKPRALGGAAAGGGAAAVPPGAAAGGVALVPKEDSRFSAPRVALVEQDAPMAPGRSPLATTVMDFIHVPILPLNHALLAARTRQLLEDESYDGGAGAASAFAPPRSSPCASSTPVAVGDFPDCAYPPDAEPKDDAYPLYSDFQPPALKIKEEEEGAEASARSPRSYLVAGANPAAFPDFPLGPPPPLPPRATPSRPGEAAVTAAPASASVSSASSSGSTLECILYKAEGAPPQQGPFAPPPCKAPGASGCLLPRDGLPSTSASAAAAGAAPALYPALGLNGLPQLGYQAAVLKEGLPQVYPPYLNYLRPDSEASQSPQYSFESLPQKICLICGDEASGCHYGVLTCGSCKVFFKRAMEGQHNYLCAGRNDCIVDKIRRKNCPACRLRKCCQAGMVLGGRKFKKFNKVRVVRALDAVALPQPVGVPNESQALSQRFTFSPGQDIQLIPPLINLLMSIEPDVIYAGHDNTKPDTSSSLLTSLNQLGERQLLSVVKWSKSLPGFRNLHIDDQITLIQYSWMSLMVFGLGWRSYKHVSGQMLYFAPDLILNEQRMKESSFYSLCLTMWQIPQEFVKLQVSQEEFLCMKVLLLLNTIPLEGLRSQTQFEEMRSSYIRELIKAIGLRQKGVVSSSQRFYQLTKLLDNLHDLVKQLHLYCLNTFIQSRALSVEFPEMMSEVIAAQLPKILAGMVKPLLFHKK

[4] = molecular target: T2, human PR-B; test: Co-transfection assay, PR antagonist activity; assay type: cell-based; conditions: for Emax: CV-1, read-out: PR Antagonist CV-1 Cells Efficacy (%);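 on all read-outs here: monkey kidney fibroblasts co-transfected with receptor expression plasmid and hormone-responsive luciferase reporter, antagonism read as reduced luciferase signal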
[5] = molecular target: T3, GR (Homo sapiens, UniProt P04150); test: Co-transfection assay, GR antagonist activity; assay type: cell-based; conditions: for Emax: CV-1, read-out: GR Antagonist CV-1 Cells Efficacy (%)
T3 construct: expressed in transfected cells; host or cells: CV-1 cells, transient transfection
T3 sequence (P04150 1-777): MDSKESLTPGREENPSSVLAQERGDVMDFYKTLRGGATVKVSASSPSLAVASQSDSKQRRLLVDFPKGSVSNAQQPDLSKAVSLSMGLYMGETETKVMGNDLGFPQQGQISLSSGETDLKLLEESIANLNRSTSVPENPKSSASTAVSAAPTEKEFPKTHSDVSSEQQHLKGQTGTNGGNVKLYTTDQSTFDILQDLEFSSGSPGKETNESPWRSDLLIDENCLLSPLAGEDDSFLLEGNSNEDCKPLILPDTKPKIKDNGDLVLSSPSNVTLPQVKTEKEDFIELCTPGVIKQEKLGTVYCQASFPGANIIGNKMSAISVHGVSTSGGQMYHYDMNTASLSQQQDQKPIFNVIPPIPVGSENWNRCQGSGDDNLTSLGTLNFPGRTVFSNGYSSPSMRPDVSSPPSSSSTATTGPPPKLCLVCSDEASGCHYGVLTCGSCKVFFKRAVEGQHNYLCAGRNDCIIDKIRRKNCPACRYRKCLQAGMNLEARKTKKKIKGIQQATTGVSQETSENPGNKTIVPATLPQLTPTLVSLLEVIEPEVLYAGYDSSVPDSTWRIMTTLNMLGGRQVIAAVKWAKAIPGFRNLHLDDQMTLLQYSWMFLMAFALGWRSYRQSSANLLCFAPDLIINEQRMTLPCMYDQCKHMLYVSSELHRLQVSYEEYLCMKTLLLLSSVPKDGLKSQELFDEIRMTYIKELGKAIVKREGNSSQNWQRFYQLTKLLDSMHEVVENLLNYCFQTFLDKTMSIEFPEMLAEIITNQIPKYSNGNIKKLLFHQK

[6] = molecular target: T4, MR (Homo sapiens, UniProt P08235); test: Co-transfection assay, MR antagonist activity; assay type: cell-based; conditions: for Emax: CV-1, read-out: MR Antagonist CV-1 Cells Efficacy (%)
T4 construct: expressed in transfected cells; host or cells: CV-1 cells, transient transfection
T4 sequence (P08235 1-984): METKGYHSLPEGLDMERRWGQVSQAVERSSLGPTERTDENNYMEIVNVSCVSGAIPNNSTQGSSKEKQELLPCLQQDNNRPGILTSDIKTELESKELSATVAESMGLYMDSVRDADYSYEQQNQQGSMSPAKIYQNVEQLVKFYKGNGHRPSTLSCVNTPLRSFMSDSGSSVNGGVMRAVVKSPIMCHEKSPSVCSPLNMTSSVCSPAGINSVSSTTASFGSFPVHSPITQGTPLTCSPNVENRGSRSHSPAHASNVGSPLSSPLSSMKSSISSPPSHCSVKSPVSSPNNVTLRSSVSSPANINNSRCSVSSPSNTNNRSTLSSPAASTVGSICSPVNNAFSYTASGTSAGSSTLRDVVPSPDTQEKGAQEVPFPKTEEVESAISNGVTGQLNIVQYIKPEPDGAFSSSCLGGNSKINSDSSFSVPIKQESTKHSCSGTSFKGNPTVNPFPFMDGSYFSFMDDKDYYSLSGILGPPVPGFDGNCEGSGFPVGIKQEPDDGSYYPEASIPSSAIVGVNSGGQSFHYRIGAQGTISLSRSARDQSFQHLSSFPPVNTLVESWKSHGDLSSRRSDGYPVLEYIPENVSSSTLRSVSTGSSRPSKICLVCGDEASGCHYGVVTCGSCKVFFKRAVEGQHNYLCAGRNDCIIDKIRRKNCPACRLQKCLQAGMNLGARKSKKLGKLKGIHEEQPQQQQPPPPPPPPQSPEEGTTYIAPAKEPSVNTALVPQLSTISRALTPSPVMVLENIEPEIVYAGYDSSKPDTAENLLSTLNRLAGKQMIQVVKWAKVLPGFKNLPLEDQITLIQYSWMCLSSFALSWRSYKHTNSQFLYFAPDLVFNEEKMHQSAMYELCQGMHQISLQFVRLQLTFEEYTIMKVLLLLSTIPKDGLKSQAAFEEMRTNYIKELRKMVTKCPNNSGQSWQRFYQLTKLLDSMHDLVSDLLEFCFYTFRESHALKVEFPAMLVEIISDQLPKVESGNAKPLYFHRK

[7] = molecular target: T5, AR (Homo sapiens, UniProt P10275); test: Co-transfection assay, AR antagonist activity; assay type: cell-based
T5 construct: expressed in transfected cells; host or cells: CV-1 cells, transient transfection
T5 sequence (P10275 whole entry): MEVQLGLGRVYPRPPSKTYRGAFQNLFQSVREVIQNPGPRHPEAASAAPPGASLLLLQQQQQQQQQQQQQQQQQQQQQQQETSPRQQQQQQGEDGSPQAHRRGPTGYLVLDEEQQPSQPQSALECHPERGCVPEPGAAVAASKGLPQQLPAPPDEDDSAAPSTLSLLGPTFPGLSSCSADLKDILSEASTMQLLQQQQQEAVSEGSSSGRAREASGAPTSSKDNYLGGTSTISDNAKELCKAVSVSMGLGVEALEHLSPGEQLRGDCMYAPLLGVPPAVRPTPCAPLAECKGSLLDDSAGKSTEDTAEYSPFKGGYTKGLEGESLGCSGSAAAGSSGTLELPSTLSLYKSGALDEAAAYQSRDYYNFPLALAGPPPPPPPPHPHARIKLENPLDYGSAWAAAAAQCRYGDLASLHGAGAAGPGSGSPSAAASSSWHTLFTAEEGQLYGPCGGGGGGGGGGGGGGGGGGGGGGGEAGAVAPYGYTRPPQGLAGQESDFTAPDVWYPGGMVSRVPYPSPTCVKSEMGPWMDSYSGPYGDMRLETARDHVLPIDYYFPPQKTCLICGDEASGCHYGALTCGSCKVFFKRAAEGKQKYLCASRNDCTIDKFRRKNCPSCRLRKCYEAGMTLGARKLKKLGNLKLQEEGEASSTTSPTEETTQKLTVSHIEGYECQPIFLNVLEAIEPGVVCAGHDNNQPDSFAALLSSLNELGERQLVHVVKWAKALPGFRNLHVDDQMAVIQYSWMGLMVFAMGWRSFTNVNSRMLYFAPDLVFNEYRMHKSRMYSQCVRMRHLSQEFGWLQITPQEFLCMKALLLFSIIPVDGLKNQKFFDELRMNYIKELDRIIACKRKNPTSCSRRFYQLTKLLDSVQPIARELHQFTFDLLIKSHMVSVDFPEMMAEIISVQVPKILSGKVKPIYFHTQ

[8] = system: PR; test: Uterine wet weight assay (PR agonist effectiveness); assay type: in vivo, Sprague-Dawely rats; conditions: for effect on uterine wet weight: co-administered with estrone, doses of 0.3 mg, 1.0 mg, and 3.0 mg/rat
Description: J. Obstet. […] R.I. Dorfman, Academic Press, New York, New York, pp101-130 (1969), the disclosures of which are herein incorporated by reference. Four to five week old, ovariectomized, Sprague-Dawely rats (Harlan-Sprague-Dawely, Indianapolis, IN) were obtained 1 week after surgery and allowed to acclimate for an additional week after shipment.

CCCCN(C)C(=O)CCCCCCCCCC[C@@H]1Cc2cc(O)ccc2[C@H]2CC[C@]3(C)[C@@H](O)CC[C@H]3[C@H]12 [ICI 164, N-butyl-3,17-dihydroxy-N-methyl-(7-alpha, 17-beta)-estra-1,3,5(10)-triene-7-undecanamide, reference compound]
Emax [1]: < 20%
ER Antagonist CV-1 Cells Efficacy (%) [2]: 99%

CC1=CC(C)(C)Nc2ccc3c(c21)C(c1ccccc1)Oc1ccccc1-3 (racemic) [Compound 161, (R/S)-1,2-Dihydro-2,2,4-trimethyl-5-phenyl-5H-chromeno[3,4-f]quinoline]
Emax [3]: 47%
Emax [4]: 75%
Emax [5]: 97%
Emax [6]: 58%

C=C1CC(C)(C)Nc2ccc3c(c21)C(c1cccc(F)c1)Oc1ccccc1-3 (racemic) [Compound 192, (R/S)-5-(3-Fluorophenyl)-1,2,3,4-tetrahydro-2,2-dimethyl-4-methylidene-5H-chromeno[3,4-f]quinoline]
EC50 [1]: > 10000 nM
Emax [1]: < 20%
IC50 [2]: 195 nM
ER Antagonist CV-1 Cells Efficacy (%) [2]: 80%
EC50 [3]: > 10000 nM
IC50 [4]: 89 nM
Emax [5]: 81%
IC50 [7]: 79 nM
Emax [6]: 70%

CC1=CC(C)(C)Nc2ccc3c(c21)C(c1ccsc1)Oc1ccccc1-3 (racemic) [Compound 170, (R/S)-1,2-Dihydro-2,2,4-trimethyl-5-(thiophen-3-yl)-5H-chromeno[3,4-f]quinoline]
IC50 [2]: 580 nM
ER Antagonist CV-1 Cells Efficacy (%) [2]: 78%
EC50 [3]: 73 nM
IC50 [4]: 145 nM
Emax [5]: 94%
IC50 [7]: 290 nM
Emax [6]: 84%

CC1=CC(C)(C)Nc2ccc3c(c21)C(c1ccc(C)cc1)Oc1ccccc1-3 (racemic) [Compound 167, (R/S)-1,2-Dihydro-2,2,4-trimethyl-5-(4-methylphenyl)-5H-chromeno[3,4-f]quinoline]
Emax [5]: 96%
Emax [6]: 61%

C[C@]12CC[C@@H]3c4ccc(O)cc4CC[C@H]3[C@@H]1CCC2=O [estrone, reference compound]
Mean Uterine Wet Weight ([8]; estrone 10 µg/day subcutaneous alone, three days, ovariectomized rats): 205 mg
increase of uterine wet weight over control treated animals ([8]; estrone alone): 4 fold

CC#C[C@]1(O)CC[C@H]2[C@@H]3CCC4=CC(=O)CCC4=C3[C@@H](c3ccc(N(C)C)cc3)C[C@@]21C [RU486, (11beta, 17beta)-11-[4-(dimethylamino)phenyl]-17-hydroxy-17-(1-propynyl)estra-4,9-dien-3-one, reference compound]
Emax [3]: < 20%
Emax [5]: 100%
Emax [6]: 77%

CC1=CC(C)(C)Nc2ccc3c(c21)C(c1cccc(C(F)(F)F)c1)Oc1ccccc1-3 (racemic) [Compound 195, (R/S) 1,2-Dihydro-2,2,4-trimethyl-5-[3-(trifluoromethyl)phenyl]-5H-chromeno[3,4-f]quinoline]
Emax [1]: 90%
IC50 [2]: 4410 nM
ER Antagonist CV-1 Cells Efficacy (%) [2]: 68%
Emax [3]: 89%
Emax [4]: < 20%
Emax [5]: 96%
IC50 [7]: 470 nM
Emax [6]: 47%

CC(C)(O)C(=O)Nc1ccc([N+](=O)[O-])c(C(F)(F)F)c1 [Flut]
EC50 [1]: > 10000 nM
IC50 [2]: > 10000 nM

CC(=O)O[C@]1(C(C)=O)CC[C@H]2[C@@H]3C[C@H](C)C4=CC(=O)CC[C@]4(C)[C@H]3CC[C@@]21C [MPA, medroxyprogesterone acetate, reference compound]
effect on uterine wet weight [8]: significantly decreased the uterine wet weight

CCCCC1Oc2ccc(F)cc2-c2ccc3c(c21)C(C)=CC(C)(C)N3 (racemic) [Compound 210, (R/S)-5-Butyl-9-fluoro-1,2-dihydro-2,2,4-trimethyl-5H-chromeno[3,4-f]quinoline]
effect on uterine wet weight [8]: decreased by approximately half

8-Fluoro-1,2-dihydro-2,2,4-trimethylindeno[1,2-g]quinoline [Compound 124]
EC50 ([1]; Table 5 overall potency, co-transfection assay, read-out: ER Potency Agon): 2100 nM
IC50 ([2]; Table 5 overall potency, co-transfection assay, read-out: ER Potency Antag): > 10000 nM
IC50 ([5]; Table 5 overall potency, co-transfection assay, read-out: GR Potency Antag): > 10000 nM
IC50 ([6]; Table 5 overall potency, co-transfection assay, read-out: MR Potency Antag): > 10000 nM

CC(=O)S[C@@H]1CC2=CC(=O)CC[C@]2(C)[C@H]2CC[C@@]3(C)[C@@H](CC[C@@]34CCC(=O)O4)[C@H]12 [Spir, 7-alpha-[acetylthio]-17-alpha-hydroxy-3-oxopregn-4-ene-21-carboxylic acid gamma-lactone, reference compound]
Emax [5]: 80%
Emax [6]: 96%
